Patent US12077503B2, “Substituted cyclic amides and their use as herbicides” (FMC CORPORATION, priority 2015, dated 2024)

Assays:
Assay type in all cases: in vivo
[1] = test system: velvetleaf (Abutilon theophrasti); assay: Test G Post-Emergence Protocol; conditions: Abutilon theophrasti, post-emergence, 312 h; for pest or weed control at 15.625 g/ha: 15.625 g ai/ha, evaluated after 13 days (100=total damage to plant; 0=no damage to plant), read-out: Velvetleaf damage rating; for pest or weed control at 62.5 g/ha: 62.5 g ai/ha, read-out: Velvetleaf damage rating (100=total damage to plant; 0=no damage to plant); for pest or weed control at 62.5 g/ha / pest or weed control at 250 g/ha: evaluated after 13 days; for pest or weed control at 250 g/ha: 250 g ai/ha, read-out: damage to plant, Velvetleaf (100=total damage to plant; 0=no damage to plant)
How it was run: (§1)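 Pot-grown seedlings, 8 days old, raised in a glasshouse at 24/16 °C day/night with 14 h light and 65% humidity, were sprayed post-emergence with test compound in acetone/water (50:50) plus 0.5% Tween 20 at 15.625, 62.5 or 250 g/ha. Damage was scored visually 13 days later on a 0–100 scale (100 = total damage).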

[2] = test system: corn (Zea mays); assay: Test G Post-Emergence Protocol; conditions: Zea mays, post-emergence, 312 h; for plant injury at 15.625 g/ha: 15.625 g ai/ha, evaluated after 13 days (100=total damage to plant; 0=no damage to plant), read-out: Corn damage rating; for plant injury at 62.5 g/ha: 62.5 g ai/ha, read-out: Corn damage rating (100=total damage to plant; 0=no damage to plant); for plant injury at 62.5 g/ha / plant injury at 250 g/ha: evaluated after 13 days; for plant injury at 250 g/ha: 250 g ai/ha, read-out: damage to plant, Corn (100=total damage to plant; 0=no damage to plant)
How it was run: as §1

[3] = test system: barnyardgrass (Echinochloa crus-galli); assay: Test G Post-Emergence Protocol; conditions: Echinochloa crus-galli, post-emergence, 312 h; for pest or weed control at 15.625 g/ha: 15.625 g ai/ha, evaluated after 13 days (100=total damage to plant; 0=no damage to plant), read-out: Barnyardgrass damage rating; for pest or weed control at 62.5 g/ha: 62.5 g ai/ha, read-out: Barnyardgrass damage rating (100=total damage to plant; 0=no damage to plant); for pest or weed control at 62.5 g/ha / pest or weed control at 250 g/ha: evaluated after 13 days; for pest or weed control at 250 g/ha: 250 g ai/ha, read-out: damage to plant, Barnyardgrass (100=total damage to plant; 0=no damage to plant)
How it was run: as §1

[4] = test system: ivy-leaved morning glory (Ipomoea hederacea); assay: Test G Post-Emergence Protocol; conditions: Ipomoea, post-emergence, 312 h; for pest or weed control at 15.625 g/ha: 15.625 g ai/ha, evaluated after 13 days (100=total damage to plant; 0=no damage to plant), read-out: Morningglory, Ivy-leaved damage rating; for pest or weed control at 62.5 g/ha: 62.5 g ai/ha, read-out: Morningglory, Ivy-leaved damage rating (100=total damage to plant; 0=no damage to plant); for pest or weed control at 62.5 g/ha / pest or weed control at 250 g/ha: evaluated after 13 days; for pest or weed control at 250 g/ha: 250 g ai/ha, read-out: damage to plant, Morningglory, Ivy-leaved (100=total damage to plant; 0=no damage to plant)
How it was run: as §1

[5] = test system: giant foxtail (Setaria faberi); assay: Test G Post-Emergence Protocol; conditions: Setaria faberi, post-emergence, 312 h; for pest or weed control at 15.625 g/ha: 15.625 g ai/ha, evaluated after 13 days (100=total damage to plant; 0=no damage to plant), read-out: Foxtail, Giant damage rating; for pest or weed control at 62.5 g/ha: 62.5 g ai/ha, read-out: Foxtail, Giant damage rating (100=total damage to plant; 0=no damage to plant); for pest or weed control at 62.5 g/ha / pest or weed control at 250 g/ha: evaluated after 13 days; for pest or weed control at 250 g/ha: 250 g ai/ha, read-out: damage to plant, Foxtail, Giant (100=total damage to plant; 0=no damage to plant)
How it was run: as §1

[6] = test system: redroot pigweed (Amaranthus retroflexus); assay: Test G Post-Emergence Protocol; conditions: Amaranthus retroflexus, post-emergence, 312 h; for pest or weed control at 15.625 g/ha: 15.625 g ai/ha, evaluated after 13 days (100=total damage to plant; 0=no damage to plant), read-out: Pigweed, Redroot damage rating; for pest or weed control at 62.5 g/ha: 62.5 g ai/ha, read-out: Pigweed, Redroot damage rating (100=total damage to plant; 0=no damage to plant); for pest or weed control at 62.5 g/ha / pest or weed control at 250 g/ha: evaluated after 13 days; for pest or weed control at 250 g/ha: 250 g ai/ha, read-out: damage to plant, Pigweed, Redroot (100=total damage to plant; 0=no damage to plant)
How it was run: as §1

[7] = test system: velvetleaf (Abutilon theophrasti); assay: Test G Pre-Emergence Protocol; conditions: Abutilon theophrasti, pre-emergence, 312 h, evaluated after 13 days; for pest or weed control at 15.625 g/ha: 15.625 g ai/ha; for pest or weed control at 15.625 g/ha / pest or weed control at 250 g/ha: read-out: Velvetleaf damage rating (100=total damage to plant; 0=no damage to plant); for pest or weed control at 62.5 g/ha: 62.5 g ai/ha, 100=total damage to plant, 0=no damage to plant, read-out: plant damage rating, Velvetleaf; for pest or weed control at 250 g/ha: 250 g ai/ha
How it was run: (§2)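 Scores are visual damage ratings from 0 (no damage) to 100 (total plant kill), taken 13 days after treatment. Compound was sprayed one day post-sowing at 15.625, 62.5 or 250 g/ha in 50:50 acetone/water with 0.5% Tween 20.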

[8] = test system: corn (Zea mays); assay: Test G Pre-Emergence Protocol; conditions: Zea mays, pre-emergence, 312 h, evaluated after 13 days; for plant injury at 15.625 g/ha: 15.625 g ai/ha; for plant injury at 15.625 g/ha / plant injury at 250 g/ha: read-out: Corn damage rating (100=total damage to plant; 0=no damage to plant); for plant injury at 62.5 g/ha: 62.5 g ai/ha, 100=total damage to plant, 0=no damage to plant, read-out: plant damage rating, Corn; for plant injury at 250 g/ha: 250 g ai/ha
How it was run: as §2

[9] = test system: barnyardgrass (Echinochloa crus-galli); assay: Test G Pre-Emergence Protocol; conditions: Echinochloa crus-galli, pre-emergence, 312 h, evaluated after 13 days; for pest or weed control at 15.625 g/ha: 15.625 g ai/ha, read-out: Barnyard grass damage rating (100=total damage to plant; 0=no damage to plant); for pest or weed control at 62.5 g/ha: 62.5 g ai/ha, 100=total damage to plant, 0=no damage to plant, read-out: plant damage rating, Barnyardgrass; for pest or weed control at 250 g/ha: 250 g ai/ha, read-out: Barnyardgrass damage rating (100=total damage to plant; 0=no damage to plant)
How it was run: as §2

[10] = test system: ivy-leaved morning glory (Ipomoea hederacea); assay: Test G Pre-Emergence Protocol; conditions: Ipomoea, pre-emergence, 312 h, evaluated after 13 days; for pest or weed control at 15.625 g/ha: 15.625 g ai/ha, read-out: Morning-glory, Ivy-leaved damage rating (100=total damage to plant; 0=no damage to plant); for pest or weed control at 62.5 g/ha: 62.5 g ai/ha, 100=total damage to plant, 0=no damage to plant, read-out: plant damage rating, Morningglory, Ivy-leaved; for pest or weed control at 250 g/ha: 250 g ai/ha, read-out: Morningglory, Ivy-leaved damage rating (100=total damage to plant; 0=no damage to plant)
How it was run: as §2

[11] = test system: giant foxtail (Setaria faberi); assay: Test G Pre-Emergence Protocol; conditions: Setaria faberi, pre-emergence, 312 h, evaluated after 13 days; for pest or weed control at 15.625 g/ha: 15.625 g ai/ha; for pest or weed control at 15.625 g/ha / pest or weed control at 250 g/ha: read-out: Foxtail, Giant damage rating (100=total damage to plant; 0=no damage to plant); for pest or weed control at 62.5 g/ha: 62.5 g ai/ha, 100=total damage to plant, 0=no damage to plant, read-out: plant damage rating, Foxtail, Giant; for pest or weed control at 250 g/ha: 250 g ai/ha
How it was run: as §2

[12] = test system: redroot pigweed (Amaranthus retroflexus); assay: Test G Pre-Emergence Protocol; conditions: Amaranthus retroflexus, pre-emergence, 312 h, evaluated after 13 days; for pest or weed control at 15.625 g/ha: 15.625 g ai/ha; for pest or weed control at 15.625 g/ha / pest or weed control at 250 g/ha: read-out: Pigweed, Redroot damage rating (100=total damage to plant; 0=no damage to plant); for pest or weed control at 62.5 g/ha: 62.5 g ai/ha, 100=total damage to plant, 0=no damage to plant, read-out: plant damage rating, Pigweed, Redroot; for pest or weed control at 250 g/ha: 250 g ai/ha
How it was run: as §2

Structure (SMILES) | pest or weed control at 15.625 g/ha [1] | pest or weed control at 62.5 g/ha [1] | pest or weed control at 250 g/ha [1] | plant injury at 15.625 g/ha [2] | plant injury at 62.5 g/ha [2] | plant injury at 250 g/ha [2] | pest or weed control at 15.625 g/ha [3] | pest or weed control at 62.5 g/ha [3] | pest or weed control at 250 g/ha [3] | pest or weed control at 15.625 g/ha [4] | pest or weed control at 62.5 g/ha [4] | pest or weed control at 250 g/ha [4] | pest or weed control at 15.625 g/ha [5] | pest or weed control at 62.5 g/ha [5] | pest or weed control at 250 g/ha [5] | pest or weed control at 15.625 g/ha [6] | pest or weed control at 62.5 g/ha [6] | pest or weed control at 250 g/ha [6] | pest or weed control at 15.625 g/ha [7] | pest or weed control at 62.5 g/ha [7] | other results
Cc1nnc(NC(=O)[C@@H]2C(=O)N(C)C[C@H]2c2ccc(C(F)(F)F)cc2)nc1C (racemic) [Compound 1549] | 0% | 0% | 0% | 0% | 0% | 0% | 0% | 0% | 0% | 0% | 0% | 0% | 0% | 0% | 0% | 0% | 0% | 0% | 0% | 0% | pest or weed control at 250 g/ha [7]: 0%; plant injury at 15.625 g/ha [8]: 0%; plant injury at 62.5 g/ha [8]: 0%; plant injury at 250 g/ha [8]: 0%; pest or weed control at 15.625 g/ha [9]: 0%; pest or weed control at 62.5 g/ha [9]: 0%; pest or weed control at 250 g/ha [9]: 0%; pest or weed control at 15.625 g/ha [10]: 0%; pest or weed control at 62.5 g/ha [10]: 0%; pest or weed control at 250 g/ha [10]: 0%; pest or weed control at 15.625 g/ha [11]: 0%; pest or weed control at 62.5 g/ha [11]: 0%; pest or weed control at 250 g/ha [11]: 0%; pest or weed control at 15.625 g/ha [12]: 0%; pest or weed control at 62.5 g/ha [12]: 0%; pest or weed control at 250 g/ha [12]: 0%
CN1C[C@@H](c2ccc(C(F)(F)F)cc2)[C@H](C(=O)Nc2nccnc2Cl)C1=O (racemic) [Compound 1552] | 0% | 0% | 0% | 10% | 10% | 10% | 0% | 0% | 0% | 0% | 0% | 0% | 0% | 0% | 0% | 0% | 0% | 0% | 0% | 0% | pest or weed control at 250 g/ha [7]: 0%; plant injury at 15.625 g/ha [8]: 0%; plant injury at 62.5 g/ha [8]: 0%; plant injury at 250 g/ha [8]: 0%; pest or weed control at 15.625 g/ha [9]: 0%; pest or weed control at 62.5 g/ha [9]: 0%; pest or weed control at 250 g/ha [9]: 0%; pest or weed control at 15.625 g/ha [10]: 0%; pest or weed control at 62.5 g/ha [10]: 0%; pest or weed control at 250 g/ha [10]: 0%; pest or weed control at 15.625 g/ha [11]: 0%; pest or weed control at 62.5 g/ha [11]: 0%; pest or weed control at 250 g/ha [11]: 0%; pest or weed control at 15.625 g/ha [12]: 0%; pest or weed control at 62.5 g/ha [12]: 0%; pest or weed control at 250 g/ha [12]: 0%
CN1C[C@@H](c2ccc(C(F)(F)F)cc2)[C@H](C(=O)Nc2nccs2)C1=O (racemic) [Compound 1554] | 0% | 0% | 0% | 0% | 0% | 0% | 0% | 0% | 0% | 0% | 0% | 0% | 0% | 0% | 0% | 0% | 0% | 0% | 0% | 0% | pest or weed control at 250 g/ha [7]: 0%; plant injury at 15.625 g/ha [8]: 0%; plant injury at 62.5 g/ha [8]: 0%; plant injury at 250 g/ha [8]: 0%; pest or weed control at 15.625 g/ha [9]: 0%; pest or weed control at 62.5 g/ha [9]: 0%; pest or weed control at 250 g/ha [9]: 10%; pest or weed control at 15.625 g/ha [10]: 0%; pest or weed control at 62.5 g/ha [10]: 0%; pest or weed control at 250 g/ha [10]: 0%; pest or weed control at 15.625 g/ha [11]: 0%; pest or weed control at 62.5 g/ha [11]: 0%; pest or weed control at 250 g/ha [11]: 20%; pest or weed control at 15.625 g/ha [12]: 0%; pest or weed control at 62.5 g/ha [12]: 0%; pest or weed control at 250 g/ha [12]: 30%
